Among the data in US9981909B2 (Janssen Pharmaceutica NV, priority 2008, dated 2018) are Ki values, retold here.

The test addresses rat 5-HT7 receptor (Rattus norvegicus (Rat), UniProt P32305). Put plainly: r5-HT7 binding assay, competitive radioligand binding with [3H]5-CT. As to the method: Receptor binding was performed using membrane fractions prepared from the HEK-293 cell line recombinantly expressing rat 5-HT7 receptors (NCBI accession NM_022938). Compound affinity for the rat 5-HT7 receptor subtype was evaluated by competitive radioligand binding assays using 5-carboxamido[^3H]tryptamine ([^3H]5-CT) (Amersham Biosciences, cat. 90000403) detection. HitHunter™ cAMP assays are in-vitro based competitive immunoassays. The assay was performed on the HEK-293 cell line stably transfected with r5-HT7 receptor. Cells were pre-incubated with test compounds for 10 minutes. For antagonist testing, the cells were then challenged with 100 nM 5-CT for 20 minutes. Cells were then lysed and cAMP measured according to manufacturers protocol (Amersham, cat. NET791250UC) or [^3H]mesulergine (Amersham, cat. TRK1041). The assay was performed on membranes prepared from HEK-293 cells stably transfected with h5-HT6. Following centrifugation, membranes were resuspended and incubated for 60 min at room temperature with 1.7 nM [^3H]LSD in the presence of increasing concentration of test compounds. Nonspecific binding was defined in the presence of 10 μM clozapine (Tocris, cat. TRK1068). Homogenized HEK-293 membranes expressing the human SERT were incubated in 50 mM Tris-HCl (pH 7.5), 120 mM NaCl, 5 mM KCl with [^3H]-citalopram (3 nM) with or without test compounds. Nonspecific binding was determined in the presence of 10 μM fluoxetine. Radioactivity readouts and Ki values were performed as previously described for r5-HT7. […] Compounds were assayed in their free form or as salts, as indicated in the Examples section above.

Setting [1] is: rat 5-HT7 receptor, HEK-293 membranes.

Where a name gives a salt, the structure may show the parent alone.

rat 5-HT7 receptor, sequence (P32305 1-435): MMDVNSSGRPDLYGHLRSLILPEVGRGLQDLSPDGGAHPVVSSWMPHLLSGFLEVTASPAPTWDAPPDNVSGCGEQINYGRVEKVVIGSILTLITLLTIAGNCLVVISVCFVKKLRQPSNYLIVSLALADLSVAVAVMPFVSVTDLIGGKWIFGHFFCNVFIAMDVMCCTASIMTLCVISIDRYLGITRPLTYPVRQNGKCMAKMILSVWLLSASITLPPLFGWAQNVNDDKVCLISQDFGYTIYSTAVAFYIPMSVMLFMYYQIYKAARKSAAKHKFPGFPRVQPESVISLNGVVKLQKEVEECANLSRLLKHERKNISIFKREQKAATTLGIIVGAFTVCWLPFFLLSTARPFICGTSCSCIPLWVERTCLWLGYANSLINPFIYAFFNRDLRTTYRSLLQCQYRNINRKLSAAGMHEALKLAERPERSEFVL

What is called Ki is a dissociation constant, usually derived from enzyme kinetics or from competition with a known ligand. `CCCN1CC(Oc2cc(F)ccc2OCc2cccc(Cl)c2)C1` [Example 206, 3-[2-(3-Chloro-benzyloxy)-5-fluoro-phenoxy]-1-propyl-azetidine] came in with a Ki under setting [1] of 0.021 µM.

`CON=C1c2ccccc2CC1Oc1ccc(Cl)cc1OC1CNC1` (centres unmarked) [Example 180, 2-[2-(Azetidin-3-yloxy)-4-chloro-phenoxy]-indan-1-one O-methyl-oxime]: affinity under setting [1] was put at a Ki of 0.813 µM.

`CC1(Oc2cc(Br)ccc2Oc2ccccc2)CNC1` [Example 218, 3-(5-Bromo-2-phenoxy-phenoxy)-3-methyl-azetidine]: affinity (rat 5-HT7, HEK-293 membranes) was put at a Ki of 0.069 µM.

`CN1CCC(Oc2cc(Br)ccc2OCc2ccccc2)C1` (racemic) [Example 98, (±)-3-(2-Benzyloxy-5-bromo-phenoxy)-1-methyl-pyrrolidine]: the Ki under setting [1] amounted to 0.023 µM.

Compound `CC(Oc1ccc(Cl)cc1OC1CNC1)c1cccc(SC(F)(F)F)c1` (racemic) [Example 120, (±)-3-[5-Chloro-2-[1-(3-trifluoromethylsulfanyl-phenyl)-ethoxy]-phenoxy]-azetidine] showed a Ki under setting [1] of 0.04 µM.

Turning to `Clc1ccc(OCc2nccs2)c(OC2CNC2)c1` [Example 88, 2-[2-(Azetidin-3-yloxy)-4-chloro-phenoxymethyl]-thiazole], under setting [1], the inhibition constant Ki worked out at 0.681 µM.

Regarding `Clc1ccc(OC2CCCC2)c(OC2CNC2)c1` [Example 72, 3-(5-Chloro-2-cyclopentyloxy-phenoxy)-azetidine trifluoroacetate], the Ki under setting [1] was 0.27 µM.

Consider `CCOC(=O)c1ccc(COc2ccc(Cl)cc2OC2CNC2)o1` [Example 55, 5-[2-(Azetidin-3-yloxy)-4-chloro-phenoxymethyl]-furan-2-carboxylic acid ethyl ester], for which the Ki under setting [1] was found to be 0.171 µM.

On to `FC(F)(F)c1ccc(COc2ccc(Cl)cc2OC2CNC2)cn1` [Example 82, 5-[2-(Azetidin-3-yloxy)-4-chloro-phenoxymethyl]-2-trifluoromethyl-pyridine], for which the Ki under setting [1] was 0.198 µM.

Under setting [1], `OCC(Oc1ccc(Cl)cc1OC1CNC1)c1ccccc1` (centres unmarked) [Example 148, 2-[2-(Azetidin-3-yloxy)-4-chloro-phenoxy]-2-phenyl-ethanol] came in with an inhibition constant (Ki) of 2 µM.

Under “rat 5-HT7, HEK-293 membranes”, `Clc1ccc(OCc2nc(C3CC3)no2)c(OC2CNC2)c1` [Example 241, 5-[2-(Azetidin-3-yloxy)-4-chloro-phenoxymethyl]-3-cyclopropyl-[1,2,4]oxadiazole hydrochloride] showed a Ki of 0.263 µM.

For `Clc1ccc(OCc2cnco2)c(OC2CNC2)c1` [Example 87, 5-[2-(Azetidin-3-yloxy)-4-chloro-phenoxymethyl]-oxazole], under setting [1], the affinity, expressed as Ki, was 0.24 µM.

As to `Cc1cccc(C(=O)c2ccc(Br)cc2OC2CNC2)c1` [Example 284, [2-(Azetidin-3-yloxy)-4-bromo-phenyl]-m-tolyl-methanone], affinity (rat 5-HT7, HEK-293 membranes) was put at a Ki of 0.019 µM.

In turn, `CC(Oc1ccc(Cl)cc1OC1CNC1)c1cc(Cl)ccc1Cl` (racemic) [Example 129, (±)-3-[5-Chloro-2-[1-(2,5-dichloro-phenyl)-ethoxy]-phenoxy]-azetidine trifluoroacetate] displayed a Ki under setting [1] of 0.903 µM.

Consider `Clc1ccc(OCC2COc3ccccc3C2)c(OC2CNC2)c1` (centres unmarked) [Example 167, 3-[5-Chloro-2-(chroman-3-ylmethoxy)-phenoxy]-azetidine], for which the inhibition constant Ki under setting [1] was found to be 0.167 µM.

On to `CC(Oc1ccc(Cl)cc1OC1CNC1)c1cncs1` (centres unmarked) [Example 132, 5-[1-[2-(Azetidin-3-yloxy)-4-chloro-phenoxy]-ethyl]-thiazole], for which, under setting [1], the Ki was 0.456 µM.

In turn, `C[C@@H](Oc1ccc(Cl)cc1OC1CCCNC1)c1cccc(C(F)(F)F)c1` (stereo partly drawn) [Example 139, (R,S)-3-[5-Chloro-2-[1-((R)-3-trifluoromethyl-phenyl)-ethoxy]-phenoxy]-piperidine] yielded a Ki under setting [1] of 0.189 µM.

Under setting [1], `Fc1cc(C(F)(F)F)ccc1COc1ccc(Cl)cc1OC1CNC1` [Example 48, 3-[5-Chloro-2-(2-fluoro-4-trifluoromethyl-benzyloxy)-phenoxy]-azetidine] gave an inhibition constant (Ki) of 0.088 µM.

Take `Clc1ccc(OC2CN(C(c3ccccc3)c3ccccc3)C2)c(OC2CNC2)c1` [Example 225, 3-[5-Chloro-2-(1-benzhydryl-azetidin-3-ol)-phenoxy]-azetidine]: the Ki (rat 5-HT7, HEK-293 membranes) came out at 2.67 µM.

`Clc1ccc(OCc2ccccc2)c(OC2CCCNC2)c1` (racemic) [Example 70, (±)-3-(2-Benzyloxy-5-chloro-phenoxy)-piperidine] gave a Ki under setting [1] of 0.174 µM.

With `CN1CC[C@@H](Oc2cc(Cl)ccc2OCc2ccccc2Cl)C1` [Example 61, (R)-3-[5-Chloro-2-(2-chloro-benzyloxy)-phenoxy]-1-methyl-pyrrolidine], the Ki under setting [1] was found to be 0.036 µM.

As for `Clc1ccc(OCc2ccccc2)c(OC2CCNCC2)c1` [Example 62, 4-(2-Benzyloxy-5-chloro-phenoxy)-piperidine], the Ki under setting [1] was 0.034 µM.

As to `Cc1noc(COc2ccc(Cl)cc2OC2CNC2)n1` [Example 239, 5-[2-(Azetidin-3-yloxy)-4-chloro-phenoxymethyl]-3-methyl-[1,2,4]oxadiazole], the Ki (rat 5-HT7, HEK-293 membranes) turned out to be 0.233 µM.

In the case of `CN(C)C(=O)c1ccc(OCc2cccc(Cl)c2)c(OC2CNC2)c1` [Example 211, 3-(Azetidin-3-yloxy)-4-(3-chloro-benzyloxy)-N,N-dimethyl-benzamide], under setting [1], the affinity, expressed as Ki, was 9 µM.

`CC(C)N1CC(Oc2ccc(Cl)cc2OC2CNC2)C1` [Example 224, 3-[5-Chloro-2-(1-Isopropyl-azetidin-3-ol)-phenoxy]-azetidine] returned a Ki (rat 5-HT7, HEK-293 membranes) of 0.068 µM.

Consider `Cc1nc(C(F)(F)F)ccc1COc1ccc(Cl)cc1OC1CNC1` [Example 80, 3-[2-(Azetidin-3-yloxy)-4-chloro-phenoxymethyl]-2-methyl-6-trifluoromethyl-pyridine], for which the Ki under setting [1] was greater than 10 µM.

Compound `CC(C)N1CC(Oc2cc(Cl)ccc2C(=O)c2ccc3c(c2)OCO3)C1` [Example 296, Benzo[1,3]dioxol-5-yl-[4-chloro-2-(1-isopropyl-azetidin-3-yloxy)-phenyl]-methanone] came in with an inhibitory constant (Ki) (rat 5-HT7, HEK-293 membranes) of 0.181 µM.

Consider `Fc1cccc(COc2ccc(Br)cc2OC2CN(C3CCC3)C2)c1` [Example 21, 3-[5-Bromo-2-(3-fluoro-benzyloxy)-phenoxy]-1-cyclobutyl-azetidine], for which affinity under setting [1] was put at a Ki of 0.02 µM.

Where the note is “rat 5-HT7, HEK-293 membranes”, `Cc1ccccc1Oc1ccc(Cl)cc1OC1CNC1` [Example 259, 3-(5-Chloro-2-o-tolyloxy-phenoxy)-azetidine trifluoroacetate] returned a Ki of 0.46 µM.

As for `FC(F)(F)c1ccc(COc2ccc(Cl)cc2OC2CCCNC2)o1` (racemic) [Example 69, (±)-3-[5-Chloro-2-(5-trifluoromethyl-furan-2-ylmethoxy)-phenoxy]-piperidine], under setting [1], the Ki stood at 0.094 µM.

Under “rat 5-HT7, HEK-293 membranes”, `Brc1ccc(Oc2ccc(Br)cc2OC2CNC2)cc1` [Example 250, 3-[5-Bromo-2-(4-bromo-phenoxy)-phenoxy]-azetidine] registered a Ki of 0.017 µM.

For `Clc1ccc(OCc2nc(C3CCC3)no2)c(OC2CNC2)c1` [Example 240, 5-[2-(Azetidin-3-yloxy)-4-chloro-phenoxymethyl]-3-cyclobutyl-[1,2,4]oxadiazole], the Ki (rat 5-HT7, HEK-293 membranes) came to 0.252 µM.

In the case of `CN1CCC(Oc2ccccc2OCc2cccc(OS(C)(=O)=O)c2)C1` (racemic) [Example 100, (±)-Methanesulfonic acid 3-[2-(1-methyl-pyrrolidin-3-yloxy)-phenoxymethyl]-phenyl ester], the affinity under setting [1] corresponds to a Ki of 0.15 µM.

Consider `Fc1cc(Cl)cc(OC2CNC2)c1OCc1ccc(C(F)(F)F)o1` [Example 198, 3-[5-Chloro-3-fluoro-2-(5-trifluoromethyl-furan-2-ylmethoxy)-phenoxy]-azetidine], for which affinity under setting [1] was put at a Ki of 1.46 µM.

`CC(Oc1ccc(Cl)cc1OC1CNC1)c1ccc(Cl)c(Cl)c1` (racemic) [Example 126, (±)-3-[5-Chloro-2-[1-(3,4-dichloro-phenyl)-ethoxy]-phenoxy]-azetidine]: the Ki under setting [1] was determined as 0.038 µM.

Compound `Brc1ccc(OCC2CCCCC2)c(OC2CNC2)c1` [Example 74, 3-(5-Bromo-2-cyclohexylmethoxy-phenoxy)-azetidine] yielded a Ki under setting [1] of 0.011 µM.

Under setting [1], `CN1CCC(Oc2cc(Br)ccc2OCc2cccc(F)c2)C1` (racemic) [Example 97, (±)-3-[5-Bromo-2-(3-fluoro-benzyloxy)-phenoxy]-1-methyl-pyrrolidine] displayed a Ki of 0.034 µM.

Consider `CC(Oc1ccc(Cl)cc1OC1CNC1)c1cccc(C#N)c1` (racemic) [Example 125, (±)-3-[1-[2-(Azetidin-3-yloxy)-4-chloro-phenoxy]-ethyl]-benzonitrile], for which affinity under setting [1] was put at a Ki of 0.104 µM.

`Cc1ccccc1C(=O)c1ccc(Br)cc1OC1CNC1` [Example 285, [2-(Azetidin-3-yloxy)-4-bromo-phenyl]-o-tolyl-methanone] displayed a Ki (rat 5-HT7, HEK-293 membranes) of 3 µM.

Regarding `ON=C1c2ccccc2CC1Oc1ccc(Cl)cc1OC1CNC1` (centres unmarked) [Example 179, 2-[2-(Azetidin-3-yloxy)-4-chloro-phenoxy]-indan-1-one oxime], the Ki under setting [1] was 0.36 µM.

`CC(Oc1ccc(Cl)cc1OC1CCNCC1)c1ccccc1F` (racemic) [Example 138, (±)-4-[5-Chloro-2-[1-(2-fluoro-phenyl)-ethoxy]-phenoxy]-piperidine] came in with a Ki under setting [1] of 0.042 µM.
